Measured values taken from publication PMC6477540 (Journal of medicinal chemistry, 2018).

Experiments:
[1] = test system: OVCAR5 cells; test: Cell viability and synergy with cisplatin; format: cell-based; settings: at 1 μM and 10 μM, 72 h
[2] = test system: PEO1 cells; test: Cell viability and synergy with cisplatin; format: cell-based; settings: at 1 μM and 10 μM, 72 h

Structure (SMILES)	Cytotoxicity of compound alone, OVCAR5 [1]	Cytotoxicity of compound alone, PEO1 [2]
O=c1c2cnn(C3COC3)c2nc(SCc2cccc(F)c2)n1-c1ccccc1 [Compound 12g, 6-((3-Fluorobenzyl)thio)-1-(oxetan-3-yl)-5-phenyl-1H-pyrazolo[3,4-d]pyrimidin-4(5H)-one]	did not show cytotoxicity	did not show cytotoxicity
O=c1c2cn(C3COC3)nc2nc(SCc2cccc(F)c2)n1-c1ccccc1 [Compound 13g, 6-((3-Fluorobenzyl)thio)-2-(oxetan-3-yl)-5-phenyl-2H-pyrazolo[3,4-d]pyrimidin-4(5H)-one]	did not show cytotoxicity	did not show cytotoxicity
